Laboratory results: PubChem BioAssay AID248 (DTP/NCI, 2004)
Where “and” joins values, the source holds several entries; their conditions need not be identical. Equal values may be shown once. Toxic doses and inconclusive results are not listed. No stated cut-off is given here; in the data, active means T/C of 150% or more; inactive means T/C below 125%.

Tested on: L1210 leukemia ip in BDF1 mice, survival T/C
Experiment: NCI In Vivo Anticancer Drug Screen. Data for tumor model L1210 Leukemia (intraperitoneal) in B6D2F1 (BDF1) mice
Conditions: endpoint: mean survival time, higher = longer survival
Procedure, shortened: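 Tumor was transplanted into mice, which were then dosed with test compound or vehicle alone. Survival was recorded for each group, and the treated figure was expressed relative to the control figure.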

[1] = dose: 100.0 mg/kg/injection, schedule: Q01DX001 (ip), vehicle: saline with Tween-80
[2] = dose: 200.0 mg/kg/injection, schedule: Q01DX001 (ip), vehicle: saline with Tween-80
[3] = dose: 400.0 mg/kg/injection, schedule: Q01DX001 (ip), vehicle: saline with Tween-80
[4] = dose: 100.0 mg/kg/injection, schedule: Q04DX002 (ip), vehicle: saline
[5] = dose: 100.0 mg/kg/injection, schedule: Q01DX009 (ip), vehicle: saline with Tween-80
[6] = dose: 100.0 mg/kg/injection, schedule: Q04DX003 (ip), vehicle: saline with Tween-80
[7] = dose: 200.0 mg/kg/injection, schedule: Q01DX009 (ip), vehicle: saline with Tween-80
[8] = dose: 100.0 mg/kg/injection, schedule: Q01DX009 (ip), vehicle: Klucel (hydroxypropylcellulose) (HPC)
[9] = dose: 200.0 mg/kg/injection, schedule: Q01DX009 (ip), vehicle: Klucel (hydroxypropylcellulose) (HPC)
[10] = dose: 6.25 mg/kg/injection, schedule: Q01DX009 (ip), vehicle: saline with Tween-80
[11] = dose: 12.5 mg/kg/injection, schedule: Q01DX009 (ip), vehicle: saline with Tween-80
[12] = dose: 100.0 mg/kg/injection, schedule: Q01DX001 (ip), vehicle: saline
[13] = dose: 200.0 mg/kg/injection, schedule: Q01DX001 (ip), vehicle: saline
[14] = dose: 25.0 mg/kg/injection, schedule: Q01DX009 (ip), vehicle: saline
[15] = dose: 50.0 mg/kg/injection, schedule: Q01DX009 (ip), vehicle: saline

Measured: T/C

CCSC(=O)Nc1cccc(OC(=O)NC)c1
inactive: [1] 100 % of control | [2] 97 % of control | [3] 97 % of control

O=C(C(O)C(O)C(O)C(O)CO)N1CCC(c2ccccc2)(c2ccccc2)CC1 (stereo not drawn)
inactive: dose: 100.0 mg/kg/injection, schedule: Q01DX003 (ip), vehicle: saline 91 % of control | dose: 200.0 mg/kg/injection, schedule: Q01DX003 (ip), vehicle: saline 94 % of control | dose: 400.0 mg/kg/injection, schedule: Q01DX003 (ip), vehicle: saline 87 % of control

C/C(=N\O)C(C)(C)O
inactive: [4] 101 % of control | dose: 200.0 mg/kg/injection, schedule: Q04DX002 (ip), vehicle: saline 108 % of control | dose: 400.0 mg/kg/injection, schedule: Q04DX002 (ip), vehicle: saline 105 % of control

Cc1c(Cl)cccc1NC(=O)/C=C/C(=O)O
inactive: [5] 98 % of control | [6] 95 % of control | [7] 94 % of control | dose: 200.0 mg/kg/injection, schedule: Q04DX003 (ip), vehicle: saline with Tween-80 93 % of control | dose: 400.0 mg/kg/injection, schedule: Q04DX003 (ip), vehicle: saline with Tween-80 103 % of control

COc1ccc(C(CCl)(CCl)c2ccc(OC)cc2)cc1
inactive: dose: 100.0 mg/kg/injection, schedule: Q01DX009 (ip), vehicle: gum acacia 110 % of control | dose: 100.0 mg/kg/injection, schedule: Q04DX003 (ip), vehicle: gum acacia 92 % of control | dose: 200.0 mg/kg/injection, schedule: Q01DX009 (ip), vehicle: gum acacia 98 % of control | dose: 200.0 mg/kg/injection, schedule: Q04DX003 (ip), vehicle: gum acacia 101 % of control | dose: 400.0 mg/kg/injection, schedule: Q01DX009 (ip), vehicle: gum acacia 93 % of control | dose: 400.0 mg/kg/injection, schedule: Q04DX003 (ip), vehicle: gum acacia 103 % of control

CCCc1nc2ccccc2c(=O)n1/N=C/c1ccc(Cl)cc1
inactive: [8] 98 % of control | [9] 88 % of control | dose: 400.0 mg/kg/injection, schedule: Q01DX009 (ip), vehicle: Klucel (hydroxypropylcellulose) (HPC) 93 % of control

N#C/C=C/C#N
inactive: [6] 92 % of control

O=C(C=C(C(F)(F)F)C(F)(F)F)c1cccc([N+](=O)[O-])c1
inactive: [10] 101 % of control | [11] 103 % of control | dose: 25.0 mg/kg/injection, schedule: Q01DX009 (ip), vehicle: saline with Tween-80 97 % of control

Nc1nc(N)c2cc(NCc3ccccc3Cl)ccc2n1
inactive: dose: 3.12 mg/kg/injection, schedule: Q01DX009 (ip), vehicle: saline with Tween-80 111 % of control | [10] 103 % of control | dose: 6.25 mg/kg/injection, schedule: Q04DX003 (ip), vehicle: saline 94 % of control | [11] 95 % of control | dose: 12.5 mg/kg/injection, schedule: Q04DX003 (ip), vehicle: saline 102 % of control | dose: 25.0 mg/kg/injection, schedule: Q01DX001 (ip), vehicle: acetone 100 % of control

O=C(C[n+]1cccc2ccccc21)c1ccc(-c2ccc(C(=O)C[n+]3cccc4ccccc43)cc2)cc1
inactive: dose: 0.13 mg/kg/injection, schedule: Q04DX003 (ip), vehicle: saline 103 % of control | dose: 0.25 mg/kg/injection, schedule: Q04DX003 (ip), vehicle: saline 103 % of control | dose: 0.5 mg/kg/injection, schedule: Q04DX003 (ip), vehicle: saline 102 % of control

O=C(Nc1ccccc1)Nc1ccc(C(=O)c2ccccc2)cc1
inactive: dose: 20.0 mg/kg/injection, schedule: Q01DX005 (ip), vehicle: saline with Tween-80 100 % of control | dose: 40.0 mg/kg/injection, schedule: Q01DX005 (ip), vehicle: saline with Tween-80 89 % of control | dose: 80.0 mg/kg/injection, schedule: Q01DX005 (ip), vehicle: saline with Tween-80 97 % of control | dose: 160.0 mg/kg/injection, schedule: Q01DX005 (ip), vehicle: saline with Tween-80 90 % of control | dose: 320.0 mg/kg/injection, schedule: Q01DX005 (ip), vehicle: saline with Tween-80 95 % of control

COC(=O)C(C)(N)Cc1ccc(O)c(C)c1 (stereo not drawn)
inactive: [8] 96 % of control | dose: 100.0 mg/kg/injection, schedule: Q04DX003 (ip), vehicle: Klucel (hydroxypropylcellulose) (HPC) 108 % of control | [9] 100 % of control | dose: 200.0 mg/kg/injection, schedule: Q04DX003 (ip), vehicle: Klucel (hydroxypropylcellulose) (HPC) 101 % of control | dose: 400.0 mg/kg/injection, schedule: Q04DX003 (ip), vehicle: Klucel (hydroxypropylcellulose) (HPC) 95 % of control

CC(=O)NC(C(O)CC(=O)C(=O)O)C(O)C(O)C(O)CO (stereo not drawn) (tested in a mixture with another compound)
inactive: [12] 102 % of control | [13] 100 % of control | dose: 400.0 mg/kg/injection, schedule: Q01DX001 (ip), vehicle: saline 102 % of control

COC(=O)CCCCC(=O)OC
inactive: [5] 103 % of control | [7] 102 % of control | dose: 400.0 mg/kg/injection, schedule: Q01DX009 (ip), vehicle: saline with Tween-80 102 % of control

c1ccc2c(C3OCC4(CC4)CO3)cccc2c1
inactive: dose: 25.0 mg/kg/injection, schedule: Q01DX001 (ip), vehicle: Klucel (hydroxypropylcellulose) (HPC) 100 % of control | dose: 50.0 mg/kg/injection, schedule: Q01DX001 (ip), vehicle: Klucel (hydroxypropylcellulose) (HPC) 96 % of control | dose: 100.0 mg/kg/injection, schedule: Q01DX001 (ip), vehicle: Klucel (hydroxypropylcellulose) (HPC) 105 % of control

CCOC(=O)c1ccc(N=[N+]([O-])c2ccc(C(=O)OCC)cc2)cc1
inactive: dose: 100.0 mg/kg/injection, schedule: Q04DX002 (ip), vehicle: Klucel (hydroxypropylcellulose) (HPC) 96 % of control | dose: 200.0 mg/kg/injection, schedule: Q04DX002 (ip), vehicle: Klucel (hydroxypropylcellulose) (HPC) 96 % of control | dose: 400.0 mg/kg/injection, schedule: Q04DX002 (ip), vehicle: Klucel (hydroxypropylcellulose) (HPC) 100 % of control

CS(=O)(=O)NN
inactive: [14] 89 % of control | dose: 50.0 mg/kg/injection, schedule: Q01DX001 (ip), vehicle: saline 100 % of control | [15] 94 % of control | [12] 102 % of control and 103 % of control

c1cc2c(c(OCC3=NCCN3)c1)CCC2
inactive: dose: 10.0 mg/kg/injection, schedule: Q01DX009 (ip), vehicle: Klucel (hydroxypropylcellulose) (HPC) 107 % of control | dose: 20.0 mg/kg/injection, schedule: Q01DX009 (ip), vehicle: Klucel (hydroxypropylcellulose) (HPC) 105 % of control | dose: 40.0 mg/kg/injection, schedule: Q01DX009 (ip), vehicle: Klucel (hydroxypropylcellulose) (HPC) 93 % of control

COC1C(C)(C)C2(C)CC[N+]1(Cc1ccccc1)C2 (stereo not drawn)
inactive: dose: 25.0 mg/kg/injection, schedule: Q04DX002 (ip), vehicle: saline 106 % of control | dose: 50.0 mg/kg/injection, schedule: Q04DX002 (ip), vehicle: saline 97 % of control | [4] 116 % of control

C1CC[N+]2(CC1)CCC2
inactive: dose: 12.0 mg/kg/injection, schedule: Q04DX003 (ip), vehicle: saline 106 % of control | dose: 12.5 mg/kg/injection, schedule: Q01DX009 (ip), vehicle: saline 97 % of control | [14] 100 % of control | dose: 25.0 mg/kg/injection, schedule: Q04DX003 (ip), vehicle: saline 94 % of control | [15] 100 % of control | dose: 50.0 mg/kg/injection, schedule: Q04DX003 (ip), vehicle: saline 111 % of control | [12] 107 % of control | [13] 115 % of control

C=CCCCCCCCCCC(CCCCC)C(=O)O (stereo not drawn)
inactive: [1] 100 % of control | [2] 94 % of control | [3] 92 % of control

CCOC(=O)COc1cc(Cl)c(Cl)cc1Cl
inactive: dose: 75.0 mg/kg/injection, schedule: Q01DX009 (ip), vehicle: gum acacia 110 % of control | dose: 100.0 mg/kg/injection, schedule: Q04DX002 (ip), vehicle: gum acacia 100 % of control | dose: 200.0 mg/kg/injection, schedule: Q04DX002 (ip), vehicle: gum acacia 118 % of control | dose: 400.0 mg/kg/injection, schedule: Q04DX002 (ip), vehicle: gum acacia 92 % of control
